Reference: ChEMBL document CHEMBL1201862, “PubChem BioAssay data set” (2004)
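All cell lines were grown in 96-well plates and treated with compound for 48 hours. GI50: concentration for 50% inhibition of growth.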 Activity calls are given as the source filed them. No stated cut-off is given here; in the data, active = GI50 up to about 1.1 µM and inactive = higher.

Assays:
Assay in all cases: NCI anticancer screen, dose series, 48 h
ACHN = tested on: ACHN
DMS-273 = tested on: DMS-273
HCC 2998 = tested on: HCC 2998
HCT-116 = tested on: HCT-116
HCT-15 = tested on: HCT-15
HL-60 = tested on: HL-60
M14 = tested on: M14
MOLT-4 = tested on: MOLT-4
Malme-3M = tested on: Malme-3M
NCI-H460 = tested on: NCI-H460
OVCAR-8 = tested on: OVCAR-8
RXF 393 = tested on: RXF 393
SK-OV-3 = tested on: SK-OV-3
SW-620 = tested on: SW-620
UACC-62 = tested on: UACC-62
UO-31 = tested on: UO-31

O=C(CC1(O)C(=O)Nc2c(Cl)ccc(Cl)c21)c1ccc2ccccc2c1 (configuration not stated)
GI50 (ACHN): 12.9 µM (inactive) | GI50 (DMS-273): 5.58 µM (inactive) | GI50 (HCC 2998): 13.1 µM (inactive) | GI50 (HCT-116): 11.7 µM (inactive) | GI50 (HCT-15): 6.19 µM | GI50 (HL-60): 1.73 µM (inactive) | GI50 (M14): 8.85 µM (inactive) | GI50 (MOLT-4): 10.8 µM (inactive) | GI50 (Malme-3M): 12.5 µM (inactive) | GI50 (NCI-H460): 9.2 µM (inactive) | GI50 (OVCAR-8): 15.5 µM (inactive) | GI50 (RXF 393): 11.6 µM (inactive) | GI50 (SK-OV-3): 11.9 µM (inactive) | GI50 (SW-620): 3.36 µM (inactive) | GI50 (UACC-62): 3.24 µM (inactive) | GI50 (UO-31): 18.1 µM (inactive)

C=C(C)C1C/C=C(/C)CCCC2(CCC3=C(CC(C(=C)C)C/C=C(/C)CCC3)O2)C(=O)C1 (configuration not stated)
GI50 (ACHN): > 100 µM (inactive) | GI50 (DMS-273): > 100 µM (inactive) | GI50 (HCC 2998): > 100 µM (inactive) | GI50 (HCT-116): 54.7 µM (inactive) | GI50 (HCT-15): > 100 µM | GI50 (HL-60): > 100 µM (inactive) | GI50 (M14): > 100 µM (inactive) | GI50 (MOLT-4): > 100 µM (inactive) | GI50 (Malme-3M): > 100 µM (inactive) | GI50 (NCI-H460): > 100 µM (inactive) | GI50 (OVCAR-8): > 100 µM (inactive) | GI50 (RXF 393): > 100 µM (inactive) | GI50 (SK-OV-3): > 100 µM (inactive) | GI50 (SW-620): > 100 µM (inactive) | GI50 (UACC-62): > 100 µM (inactive) | GI50 (UO-31): > 100 µM (inactive)

Nc1c(-c2ccc(-c3c(N)[n+]([O-])c4ccccc4[n+]3[O-])cc2)[n+]([O-])c2ccccc2[n+]1[O-]
GI50 (ACHN): 16.2 µM (inactive) | GI50 (DMS-273): 14.2 µM (inactive) | GI50 (HCC 2998): 15.1 µM (inactive) | GI50 (HCT-15): 3.92 µM | GI50 (HL-60): 13.9 µM (inactive) | GI50 (M14): 12.2 µM (inactive) | GI50 (MOLT-4): 33.3 µM (inactive) | GI50 (Malme-3M): 3.02 µM (inactive) | GI50 (NCI-H460): 14.3 µM (inactive) | GI50 (OVCAR-8): 18.9 µM (inactive) | GI50 (SK-OV-3): 24.9 µM (inactive) | GI50 (SW-620): 4.5 µM (inactive) | GI50 (UACC-62): 10.2 µM (inactive) | GI50 (UO-31): 16.4 µM (inactive)

N#Cc1c(CC(=O)O)cc(=O)n2c1[nH]c1ccccc12
GI50 (ACHN): > 100 µM (inactive) | GI50 (DMS-273): > 100 µM (inactive) | GI50 (HCC 2998): > 100 µM (inactive) | GI50 (HCT-116): > 100 µM (inactive) | GI50 (HCT-15): > 100 µM | GI50 (HL-60): > 100 µM (inactive) | GI50 (M14): > 100 µM (inactive) | GI50 (MOLT-4): > 100 µM (inactive) | GI50 (Malme-3M): > 100 µM (inactive) | GI50 (NCI-H460): > 100 µM (inactive) | GI50 (OVCAR-8): > 100 µM (inactive) | GI50 (RXF 393): > 100 µM (inactive) | GI50 (SK-OV-3): > 100 µM (inactive) | GI50 (SW-620): > 100 µM (inactive) | GI50 (UO-31): > 100 µM (inactive)

CCOC(=O)C(Oc1ccc(OC)c2c1C(=O)CCC2)c1ccccc1 (configuration not stated)
GI50 (ACHN): > 100 µM (inactive) | GI50 (DMS-273): 98.9 µM (inactive) | GI50 (HCC 2998): > 100 µM (inactive) | GI50 (HCT-116): 84.7 µM (inactive) | GI50 (HCT-15): > 100 µM | GI50 (HL-60): 49 µM (inactive) | GI50 (M14): > 100 µM (inactive) | GI50 (MOLT-4): 33.7 µM (inactive) | GI50 (Malme-3M): > 100 µM (inactive) | GI50 (NCI-H460): > 100 µM (inactive) | GI50 (OVCAR-8): > 100 µM (inactive) | GI50 (SK-OV-3): > 100 µM (inactive) | GI50 (SW-620): > 100 µM (inactive) | GI50 (UACC-62): 69.3 µM (inactive) | GI50 (UO-31): 53.2 µM (inactive)

Cc1ccc(S(=O)(=O)N/N=C(\c2nc3ccc([N+](=O)[O-])cc3[nH]c2=O)C(O)c2ccc([N+](=O)[O-])cc2)cc1 (configuration not stated)
GI50 (ACHN): 35 µM (inactive) | GI50 (DMS-273): 54 µM (inactive) | GI50 (HCC 2998): 28.2 µM (inactive) | GI50 (HCT-15): 28.2 µM | GI50 (HL-60): 10 µM (inactive) | GI50 (M14): > 100 µM (inactive) | GI50 (MOLT-4): 29.4 µM (inactive) | GI50 (Malme-3M): > 100 µM (inactive) | GI50 (NCI-H460): 55.2 µM (inactive) | GI50 (OVCAR-8): > 100 µM (inactive) | GI50 (RXF 393): > 100 µM (inactive) | GI50 (SK-OV-3): > 100 µM (inactive) | GI50 (SW-620): > 100 µM (inactive) | GI50 (UACC-62): 85.5 µM (inactive) | GI50 (UO-31): 56.9 µM (inactive)

FC(F)(F)c1ccc2nc(Nc3ccc(Cl)c(Cl)c3)c(-c3ccccc3)nc2c1
GI50 (ACHN): 40.3 µM (inactive) | GI50 (DMS-273): 6.55 µM (inactive) | GI50 (HCC 2998): 86.7 µM (inactive) | GI50 (HCT-116): 7.66 µM (inactive) | GI50 (HCT-15): 0.659 µM | GI50 (HL-60): 8.57 µM (inactive) | GI50 (MOLT-4): 6.81 µM (inactive) | GI50 (Malme-3M): > 100 µM (inactive) | GI50 (NCI-H460): 7.05 µM (inactive) | GI50 (OVCAR-8): 21 µM (inactive) | GI50 (RXF 393): 39.1 µM (inactive) | GI50 (SW-620): 33.4 µM (inactive) | GI50 (UO-31): > 100 µM (inactive)

O=C(NC12CC3CC(CC(C3)C1)C2)C(=O)c1c[nH]c2ccc(Cl)cc12
GI50 (ACHN): 33.3 µM (inactive) | GI50 (DMS-273): 16.8 µM (inactive) | GI50 (HCC 2998): 32.9 µM (inactive) | GI50 (HCT-116): 30.1 µM (inactive) | GI50 (HCT-15): 21.2 µM | GI50 (HL-60): 17.3 µM (inactive) | GI50 (M14): 20 µM (inactive) | GI50 (MOLT-4): 7.89 µM (inactive) | GI50 (Malme-3M): 34.9 µM (inactive) | GI50 (NCI-H460): 22.2 µM (inactive) | GI50 (SK-OV-3): 32.7 µM (inactive) | GI50 (UACC-62): 40.1 µM (inactive) | GI50 (UO-31): 66.4 µM (inactive)

CN1C(c2ccccc2)CS(=O)(=O)CS1(=O)=O (configuration not stated)
GI50 (ACHN): > 100 µM (inactive) | GI50 (DMS-273): > 100 µM (inactive) | GI50 (HCC 2998): > 100 µM (inactive) | GI50 (HCT-116): > 100 µM (inactive) | GI50 (HCT-15): > 100 µM | GI50 (M14): > 100 µM (inactive) | GI50 (Malme-3M): > 100 µM (inactive) | GI50 (NCI-H460): > 100 µM (inactive) | GI50 (OVCAR-8): > 100 µM (inactive) | GI50 (RXF 393): > 100 µM (inactive) | GI50 (SK-OV-3): > 100 µM (inactive) | GI50 (SW-620): > 100 µM (inactive) | GI50 (UACC-62): > 100 µM (inactive) | GI50 (UO-31): > 100 µM (inactive)

[O-][Cl+3]([O-])([O-])[O-].c1ccc(-c2csc3c4ccccc4c4ccccc4[n+]23)cc1
GI50 (ACHN): 10.2 µM (inactive) | GI50 (DMS-273): 1.6 µM (inactive) | GI50 (HCC 2998): 1.54 µM (inactive) | GI50 (HCT-116): 2.32 µM (inactive) | GI50 (HCT-15): 23.3 µM | GI50 (HL-60): 1.91 µM (inactive) | GI50 (M14): 9.48 µM (inactive) | GI50 (MOLT-4): 2.18 µM (inactive) | GI50 (Malme-3M): 1.58 µM (inactive) | GI50 (NCI-H460): 2.51 µM (inactive) | GI50 (OVCAR-8): 2.59 µM (inactive) | GI50 (RXF 393): 13 µM (inactive) | GI50 (SK-OV-3): 13.9 µM (inactive) | GI50 (SW-620): 3.5 µM (inactive) | GI50 (UACC-62): 1.88 µM (inactive) | GI50 (UO-31): 10.7 µM (inactive)
